Consider three compounds from article PMC4410475, “Discovery and anti-cancer evaluation of two novel non-ATP-competitive FGFR1 inhibitors in non-small-cell lung cancer” (BMC Cancer, 2015).

pIC50: −log10 of the molar value.

What all share (type): biochemical
Assay [1] deals with T1, FGFR1 (Homo sapiens, UniProt P11362). Briefly: Caliper mobility shift kinase assay with recombinant FGFR1, ATP at Km ([…]).
Assay [2] addresses T1, FGFR1. The assay can be described thus: Caliper mobility shift kinase assay with recombinant FGFR1, also at varied ATP concentrations.
The target of the next assay is FGFR3 (Homo sapiens, UniProt P22607). Briefly: cell-free kinase assay (authors' own, called previous). To be noted: cited from earlier work.
Sequence of FGFR3 (P22607 23-806): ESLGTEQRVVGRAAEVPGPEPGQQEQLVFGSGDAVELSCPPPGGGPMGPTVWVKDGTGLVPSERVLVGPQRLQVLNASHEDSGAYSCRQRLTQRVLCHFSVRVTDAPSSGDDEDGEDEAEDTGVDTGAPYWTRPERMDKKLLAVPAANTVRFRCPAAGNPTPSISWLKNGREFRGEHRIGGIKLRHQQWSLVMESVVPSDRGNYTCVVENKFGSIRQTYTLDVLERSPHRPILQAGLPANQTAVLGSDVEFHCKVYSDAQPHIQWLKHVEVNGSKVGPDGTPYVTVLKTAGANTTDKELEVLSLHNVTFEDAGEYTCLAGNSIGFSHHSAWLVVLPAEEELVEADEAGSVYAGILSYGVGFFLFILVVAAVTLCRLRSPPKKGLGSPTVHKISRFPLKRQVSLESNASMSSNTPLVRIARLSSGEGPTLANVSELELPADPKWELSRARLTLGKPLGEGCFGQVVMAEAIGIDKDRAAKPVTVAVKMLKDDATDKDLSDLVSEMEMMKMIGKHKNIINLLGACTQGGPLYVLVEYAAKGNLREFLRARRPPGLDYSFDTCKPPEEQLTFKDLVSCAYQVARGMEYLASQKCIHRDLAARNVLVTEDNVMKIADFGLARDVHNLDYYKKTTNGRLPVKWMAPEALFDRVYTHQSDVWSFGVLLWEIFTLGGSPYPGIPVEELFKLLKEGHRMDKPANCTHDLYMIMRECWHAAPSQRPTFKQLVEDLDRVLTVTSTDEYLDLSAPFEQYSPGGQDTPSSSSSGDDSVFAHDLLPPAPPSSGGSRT

T1 sequence (P11362 22-822): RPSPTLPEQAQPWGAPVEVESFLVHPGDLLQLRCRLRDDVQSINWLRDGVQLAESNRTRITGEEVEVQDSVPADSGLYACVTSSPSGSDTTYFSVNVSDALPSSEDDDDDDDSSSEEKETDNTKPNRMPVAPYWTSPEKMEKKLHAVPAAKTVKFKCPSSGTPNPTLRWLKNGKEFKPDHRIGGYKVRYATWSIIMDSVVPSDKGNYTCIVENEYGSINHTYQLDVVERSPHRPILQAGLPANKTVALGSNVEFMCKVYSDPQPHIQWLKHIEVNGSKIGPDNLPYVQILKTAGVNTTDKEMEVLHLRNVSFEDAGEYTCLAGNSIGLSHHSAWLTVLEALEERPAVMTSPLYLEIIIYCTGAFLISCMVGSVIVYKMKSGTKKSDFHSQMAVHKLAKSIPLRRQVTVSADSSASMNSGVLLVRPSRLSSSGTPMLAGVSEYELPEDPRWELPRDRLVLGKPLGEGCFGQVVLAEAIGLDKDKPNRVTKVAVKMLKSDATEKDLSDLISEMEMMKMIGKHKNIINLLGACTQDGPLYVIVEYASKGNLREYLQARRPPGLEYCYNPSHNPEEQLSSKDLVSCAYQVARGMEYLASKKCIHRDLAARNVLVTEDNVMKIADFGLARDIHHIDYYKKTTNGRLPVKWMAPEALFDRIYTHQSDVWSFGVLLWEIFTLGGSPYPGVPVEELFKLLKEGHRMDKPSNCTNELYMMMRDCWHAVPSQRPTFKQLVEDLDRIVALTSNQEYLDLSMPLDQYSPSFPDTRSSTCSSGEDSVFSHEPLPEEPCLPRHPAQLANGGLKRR

On to `O=C1/C(=C/c2ccc(O)c(O)c2)CSC/C1=C\c1ccc(O)c(O)c1` [Ad23, 3,5-bis(3,4-dihydroxybenzylidene)-tetrahydrothiopyran-4-one], for which, at FGFR1 [1], the pIC50 (usually the IC50 on a negative log10 scale, so that one unit is a factor of ten) was 6.22.

`O=C1/C(=C/c2ccc(O)c(O)c2)COC/C1=C\c1ccc(O)c(O)c1` [Af23, 3,5-bis(3,4-dihydroxybenzylidene)-tetrahydropyran-4-one]: the pIC50 at FGFR1 [1] is 5.85.

As to `CC(Cc1ccc(O)c(O)c1)C(C)Cc1ccc(O)c(O)c1` (stereo not shown) [NDGA, nordihydroguaiaretic acid], the pIC50 on FGFR1 [2] was 4.61; at FGFR3 it was 4.14.
